Source: the NIST ThermoML archive (doi:10.1016/j.fluid.2012.04.003)
Numbers after ± are expanded uncertainties.

Assay: wn = mass fraction of the nth substance listed
Settings: 101 kPa, Liquid, Vibrating tube method

mass density (293.15 K, w1 = 0.02): 1012.4 ± 0.8 kg/m3
mass density (293.15 K, w1 = 0.04): 1026.7 ± 0.8 kg/m3
mass density (303.15 K, w1 = 0.02): 1012.4 ± 0.8 kg/m3
mass density (303.15 K, w1 = 0.04): 1026.7 ± 0.8 kg/m3
mass density (313.15 K, w1 = 0.02): 1006.1 ± 0.8 kg/m3
SMILES: [Cl-].[Na+] [sodium chloride] + O
